pIC50: −log10 of the molar value. Where two headings read alike, the source gives them in different places.

For test [1], the target named is PDE1A (Homo sapiens, UniProt P54750). Briefly: PDE1A inhibition, IMAP fluorescence polarization assay. To be noted: for IC50: read-out: PDE1A inhibition IC50 μM. It counts as biochemical.
In test [2] the target is T1, human PDE5 (Homo sapiens, UniProt O76074). The test can be described thus: PDE5 inhibition, IMAP fluorescence polarization phosphodiesterase assay. It counts as biochemical. To be noted: for inhibition at 10 µM: read-out: % PDE5 inhibition at 10 μM. Background: Polarisation of emitted light reports the rotation of a fluorescent probe.
For test [3], the target named is PDE3B (Homo sapiens, UniProt Q13370). The test can be described thus: PDE3B inhibition, IMAP fluorescence polarization assay. It counts as biochemical. The note with it: for IC50: read-out: PDE3B inhibition IC50 μM.
Test [4] deals with PDE11A (Homo sapiens, UniProt Q9HCR9). The test can be described thus: PDE11A inhibition, IMAP fluorescence polarization assay. The class given is biochemical. The note with it: for selectivity profile (selectivity index) PDE5 versus PDE11: cGMP as the substrate.
For test [5], the target named is PDE3A (Homo sapiens, UniProt Q14432). Briefly: PDE3A inhibition, IMAP fluorescence polarization assay. It counts as biochemical. To be noted: for IC50: read-out: PDE3A inhibition IC50 μM.
Test [6] deals with PDE2A (Homo sapiens, UniProt O00408). The test can be described thus: PDE2A inhibition, IMAP fluorescence polarization assay. It counts as biochemical. The note with it: for IC50: read-out: PDE2A inhibition IC50 μM.
Test [7] has as its target PDE10A (Homo sapiens, UniProt Q9Y233). The test can be described thus: PDE10A inhibition, IMAP fluorescence polarization assay. The class given is biochemical.
The target in test [8] is PDE9A (Homo sapiens, UniProt O76083). Briefly: PDE9A inhibition, IMAP fluorescence polarization assay. It counts as biochemical.
The target in test [9] is T1, human PDE5. To be noted: tadalafil and earlier analogues, Table 1; cited from earlier work.
The mark [10] stands for this setting: PDE11A inhibition IC50 μM, substrate cAMP.
Where [11] appears, read: PDE11A inhibition IC50 μM, substrate cGMP.
[12] abbreviates: PDE10A inhibition IC50 μM, substrate cAMP.
Setting [13] is: PDE10A inhibition IC50 μM, substrate cGMP.

PDE10A, sequence (Q9Y233 290-1055 limits assumed): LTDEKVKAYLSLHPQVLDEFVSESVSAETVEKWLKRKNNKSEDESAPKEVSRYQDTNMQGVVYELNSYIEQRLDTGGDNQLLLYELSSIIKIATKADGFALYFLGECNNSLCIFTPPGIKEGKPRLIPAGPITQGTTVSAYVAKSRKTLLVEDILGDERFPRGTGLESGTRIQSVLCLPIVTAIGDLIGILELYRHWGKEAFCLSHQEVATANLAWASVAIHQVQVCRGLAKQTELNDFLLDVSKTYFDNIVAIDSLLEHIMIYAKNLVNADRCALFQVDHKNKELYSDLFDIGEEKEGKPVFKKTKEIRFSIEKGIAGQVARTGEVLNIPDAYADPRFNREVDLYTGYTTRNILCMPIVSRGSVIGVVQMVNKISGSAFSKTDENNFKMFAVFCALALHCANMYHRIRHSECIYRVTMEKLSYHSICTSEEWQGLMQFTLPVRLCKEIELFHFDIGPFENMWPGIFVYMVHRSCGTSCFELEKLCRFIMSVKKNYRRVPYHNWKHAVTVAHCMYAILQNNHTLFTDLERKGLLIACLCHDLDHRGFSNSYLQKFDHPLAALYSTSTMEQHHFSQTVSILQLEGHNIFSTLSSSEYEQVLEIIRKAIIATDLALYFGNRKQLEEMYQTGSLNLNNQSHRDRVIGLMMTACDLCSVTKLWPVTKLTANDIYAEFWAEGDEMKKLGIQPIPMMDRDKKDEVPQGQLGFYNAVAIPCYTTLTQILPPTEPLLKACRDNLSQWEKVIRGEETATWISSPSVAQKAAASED
PDE3A, sequence (Q14432 whole entry): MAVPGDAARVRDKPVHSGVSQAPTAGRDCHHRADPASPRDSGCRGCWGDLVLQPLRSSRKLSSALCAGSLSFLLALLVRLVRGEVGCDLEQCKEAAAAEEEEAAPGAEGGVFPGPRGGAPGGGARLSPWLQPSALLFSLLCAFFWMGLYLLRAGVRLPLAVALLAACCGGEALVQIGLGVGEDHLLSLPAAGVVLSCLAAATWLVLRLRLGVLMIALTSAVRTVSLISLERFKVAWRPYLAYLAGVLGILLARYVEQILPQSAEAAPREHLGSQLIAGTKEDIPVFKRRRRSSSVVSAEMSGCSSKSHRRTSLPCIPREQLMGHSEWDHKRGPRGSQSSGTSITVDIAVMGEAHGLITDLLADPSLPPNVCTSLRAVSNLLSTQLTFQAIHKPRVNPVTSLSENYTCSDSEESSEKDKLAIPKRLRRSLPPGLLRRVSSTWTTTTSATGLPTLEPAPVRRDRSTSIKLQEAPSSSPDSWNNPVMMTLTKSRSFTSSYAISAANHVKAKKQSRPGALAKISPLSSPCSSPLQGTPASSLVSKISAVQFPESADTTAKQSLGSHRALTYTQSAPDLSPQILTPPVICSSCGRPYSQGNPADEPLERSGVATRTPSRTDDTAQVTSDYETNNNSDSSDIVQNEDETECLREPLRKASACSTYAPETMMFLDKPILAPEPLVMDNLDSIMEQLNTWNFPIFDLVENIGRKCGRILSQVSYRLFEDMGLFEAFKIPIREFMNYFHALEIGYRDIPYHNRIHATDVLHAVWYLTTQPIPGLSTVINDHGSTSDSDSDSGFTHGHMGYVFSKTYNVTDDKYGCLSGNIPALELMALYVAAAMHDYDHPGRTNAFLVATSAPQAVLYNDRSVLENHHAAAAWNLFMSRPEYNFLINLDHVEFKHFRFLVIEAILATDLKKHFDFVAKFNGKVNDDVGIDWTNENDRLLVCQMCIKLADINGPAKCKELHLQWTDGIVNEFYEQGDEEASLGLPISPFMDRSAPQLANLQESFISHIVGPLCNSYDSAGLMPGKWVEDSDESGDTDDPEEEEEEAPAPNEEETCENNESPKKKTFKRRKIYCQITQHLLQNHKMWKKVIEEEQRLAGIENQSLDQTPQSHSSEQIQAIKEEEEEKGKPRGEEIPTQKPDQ
PDE2A, sequence (O00408 whole entry): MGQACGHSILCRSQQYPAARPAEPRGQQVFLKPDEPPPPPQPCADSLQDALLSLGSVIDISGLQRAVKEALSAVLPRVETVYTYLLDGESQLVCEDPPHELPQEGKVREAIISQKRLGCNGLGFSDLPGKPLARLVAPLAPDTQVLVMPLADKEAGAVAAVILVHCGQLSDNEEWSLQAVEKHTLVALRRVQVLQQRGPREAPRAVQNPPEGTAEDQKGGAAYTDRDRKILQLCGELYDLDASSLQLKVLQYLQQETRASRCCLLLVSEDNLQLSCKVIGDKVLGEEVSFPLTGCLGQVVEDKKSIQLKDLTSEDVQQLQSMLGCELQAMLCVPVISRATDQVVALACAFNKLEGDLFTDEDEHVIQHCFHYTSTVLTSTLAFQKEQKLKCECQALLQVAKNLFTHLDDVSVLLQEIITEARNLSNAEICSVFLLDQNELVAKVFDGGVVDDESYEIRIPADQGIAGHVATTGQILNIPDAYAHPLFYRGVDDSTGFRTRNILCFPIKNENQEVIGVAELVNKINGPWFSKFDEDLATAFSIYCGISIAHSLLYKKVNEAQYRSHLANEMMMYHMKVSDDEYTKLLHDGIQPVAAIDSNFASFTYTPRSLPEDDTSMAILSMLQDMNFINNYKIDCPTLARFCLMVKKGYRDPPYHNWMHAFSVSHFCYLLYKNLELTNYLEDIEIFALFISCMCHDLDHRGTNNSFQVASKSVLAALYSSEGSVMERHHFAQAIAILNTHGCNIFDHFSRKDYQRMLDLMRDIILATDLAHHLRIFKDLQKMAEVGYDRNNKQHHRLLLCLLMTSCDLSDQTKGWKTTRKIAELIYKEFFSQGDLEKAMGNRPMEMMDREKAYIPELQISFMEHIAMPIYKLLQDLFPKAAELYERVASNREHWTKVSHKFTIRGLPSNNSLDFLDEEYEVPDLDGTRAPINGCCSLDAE
PDE11A, sequence (Q9HCR9 whole entry): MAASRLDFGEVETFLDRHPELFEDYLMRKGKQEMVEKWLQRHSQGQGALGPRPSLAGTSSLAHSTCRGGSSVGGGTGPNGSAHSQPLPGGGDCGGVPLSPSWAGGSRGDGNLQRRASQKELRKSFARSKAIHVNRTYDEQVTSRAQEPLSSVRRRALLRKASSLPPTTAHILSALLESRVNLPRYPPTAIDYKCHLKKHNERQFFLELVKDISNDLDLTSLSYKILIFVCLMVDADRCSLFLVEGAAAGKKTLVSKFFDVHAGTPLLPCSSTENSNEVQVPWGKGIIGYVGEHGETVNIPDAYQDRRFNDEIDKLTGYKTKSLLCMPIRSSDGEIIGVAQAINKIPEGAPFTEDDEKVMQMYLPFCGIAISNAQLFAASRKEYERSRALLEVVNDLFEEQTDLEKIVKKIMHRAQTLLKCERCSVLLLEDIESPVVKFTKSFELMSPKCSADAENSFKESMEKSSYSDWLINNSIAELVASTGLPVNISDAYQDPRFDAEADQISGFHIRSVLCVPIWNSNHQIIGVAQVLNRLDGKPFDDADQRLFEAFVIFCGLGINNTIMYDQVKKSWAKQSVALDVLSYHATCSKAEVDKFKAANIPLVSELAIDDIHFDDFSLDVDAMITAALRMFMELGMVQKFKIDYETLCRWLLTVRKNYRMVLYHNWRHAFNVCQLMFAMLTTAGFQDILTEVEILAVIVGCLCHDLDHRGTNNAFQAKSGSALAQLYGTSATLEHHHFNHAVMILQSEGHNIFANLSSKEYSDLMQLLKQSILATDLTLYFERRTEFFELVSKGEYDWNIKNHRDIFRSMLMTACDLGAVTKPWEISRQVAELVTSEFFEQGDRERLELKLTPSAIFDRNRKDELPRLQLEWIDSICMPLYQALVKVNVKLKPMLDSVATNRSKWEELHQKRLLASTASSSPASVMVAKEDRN
PDE3B, sequence (Q13370 whole entry): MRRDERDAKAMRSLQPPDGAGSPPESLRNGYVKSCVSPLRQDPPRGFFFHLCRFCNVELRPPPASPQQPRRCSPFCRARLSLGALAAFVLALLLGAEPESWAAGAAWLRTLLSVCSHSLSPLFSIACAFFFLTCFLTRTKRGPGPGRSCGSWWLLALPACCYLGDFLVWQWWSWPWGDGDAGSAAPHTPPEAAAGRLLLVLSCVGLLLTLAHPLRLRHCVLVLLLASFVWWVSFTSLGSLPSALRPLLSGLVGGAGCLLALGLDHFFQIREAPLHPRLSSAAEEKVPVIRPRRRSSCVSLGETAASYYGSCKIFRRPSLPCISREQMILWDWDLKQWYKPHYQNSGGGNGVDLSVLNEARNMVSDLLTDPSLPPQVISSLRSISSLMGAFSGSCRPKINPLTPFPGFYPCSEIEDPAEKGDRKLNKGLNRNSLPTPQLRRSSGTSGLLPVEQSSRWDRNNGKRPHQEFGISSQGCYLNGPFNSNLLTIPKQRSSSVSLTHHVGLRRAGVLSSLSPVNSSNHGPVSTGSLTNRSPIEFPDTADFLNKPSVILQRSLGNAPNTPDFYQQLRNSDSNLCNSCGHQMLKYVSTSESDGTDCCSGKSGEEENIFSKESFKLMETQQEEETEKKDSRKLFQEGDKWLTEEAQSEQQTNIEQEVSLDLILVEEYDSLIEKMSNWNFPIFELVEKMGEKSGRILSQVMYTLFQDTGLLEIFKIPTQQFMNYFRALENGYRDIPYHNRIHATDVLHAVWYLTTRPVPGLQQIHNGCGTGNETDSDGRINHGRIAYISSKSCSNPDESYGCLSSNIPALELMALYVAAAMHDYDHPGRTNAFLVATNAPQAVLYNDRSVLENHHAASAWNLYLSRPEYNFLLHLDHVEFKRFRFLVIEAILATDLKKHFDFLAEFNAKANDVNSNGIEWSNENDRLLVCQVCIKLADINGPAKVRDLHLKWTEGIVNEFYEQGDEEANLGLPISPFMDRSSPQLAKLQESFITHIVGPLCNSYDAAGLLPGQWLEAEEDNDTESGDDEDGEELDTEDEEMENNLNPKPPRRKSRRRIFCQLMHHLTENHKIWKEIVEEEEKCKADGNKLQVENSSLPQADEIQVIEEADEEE

What is called pIC50 is the IC50 on a negative log10 scale, so that one unit is a factor of ten. Higher therefore signals a low IC50. By IC50 is commonly meant the concentration needed to halve the response being measured. What is called inhibition is the relative decrease from the control value, in per cent. Take `CCN1C(=O)[C@@H]2Cc3c([nH]c4ccccc34)[C@@H](c3ccc(Br)cc3)N2C1=O` [Compound 8, (5R,11aS)-5-(4-Bromophenyl)-2-ethyl-5,6,11,11a-tetrahydro-1H-imidazo[1′,5′:1,6]pyrido[3,4-b]indole-1,3(2H)-dione]: the pIC50 in test [1] is less than 4.30; in [2] it was 7.29; in [3] it was less than 4.30; in [5], less than 4.30; in test [6] it was less than 4.30; in [8], less than 4.30. The IC50 in test [1] (substrate cGMP) was more than 50 µM; in test [3] (substrate cGMP), more than 50 µM; in test [4] (setting [10]), 44 µM; in [4] (setting [11]), 35.7 µM; in test [5] (substrate cGMP), more than 50 µM; in test [6] (substrate cGMP) it was more than 50 µM. Further, the half-maximal inhibitory concentration (IC50) in test [7] (setting [12]) and in test [7] (setting [13]) was more than 50 µM each time. Moreover, the inhibition at 10 µM in [2] came out at 101%. For the same molecule, in test [4], the “selectivity profile (selectivity index) PDE5 versus PDE11” value was determined as 700.

With `CN1CC(=O)N2[C@H](c3ccc(Br)cc3)c3[nH]c4ccccc4c3C[C@@H]2C1=O` [Compound 25, (6R,12aR)-6-(4-Bromophenyl)-2-methyl-2,3,6,7,12,12a-hexahydropyrazino [1′,2′:1,6]pyrido[3,4-b]indole-1,4-dione], the pIC50 in [1] was less than 4.30; in [2] it was 7.72; in test [3] it was less than 4.30; in [5] it was less than 4.30; in test [6], less than 4.30; in [8] it was less than 4.30. Further, the half-maximal inhibitory concentration (IC50) in test [1] (substrate cGMP) is more than 50 µM; in test [3] (substrate cGMP), more than 50 µM; in [4] (setting [10]) it was 0.6 µM; in test [4] (setting [11]), 0.27 µM; in test [5] (substrate cGMP) it was more than 50 µM; in test [6] (substrate cGMP), more than 50 µM. In addition, the concentration for half-maximal inhibition (IC50) in test [7] (setting [12]) is more than 50 µM; in [7] (setting [13]), 41.7 µM. Further, the inhibition at 10 µM in [2] turned out to be 98%. The “selectivity profile (selectivity index) PDE5 versus PDE11” value in test [4] is 14.

For the molecule `CN1CC(=O)N2[C@H](c3ccc(Br)cc3)c3[nH]c4ccccc4c3C[C@H]2C1=O` [Compound 28, (6R,12aS)-6-(4-Bromophenyl)-2-methyl-2,3,6,7,12,12a-hexahydropyrazino [1′,2′:1,6]pyrido[3,4-b]indole-1,4-dione], the pIC50 in test [1] was less than 4.30; in test [2] it was 7.92; in test [3] it was less than 4.30; in [5] it was less than 4.30; in test [6], less than 4.30; in test [8], less than 4.30. Moreover, the IC50 in test [1] (substrate cGMP) is more than 50 µM; in [3] (substrate cGMP), more than 50 µM; in test [4] (setting [10]), 1.3 µM; in test [4] (setting [11]), 1.13 µM; in [5] (substrate cGMP), more than 50 µM; in [6] (substrate cGMP), more than 50 µM. Besides, the IC50 in test [7] (setting [12]) and in test [7] (setting [13]) was more than 50 µM throughout. The inhibition at 10 µM in test [2] is 91%. Besides, the “selectivity profile (selectivity index) PDE5 versus PDE11” value in test [4] was 94.

In the case of `CCN1CC(=O)N2[C@H](c3ccc(Br)cc3)c3[nH]c4ccccc4c3C[C@@H]2C1=O` [Compound 29, (6R,12aR)-2-Ethyl-6-(4-bromophenyl)-2,3,6,7,12,12a-hexahydropyrazino [1′,2′:1,6]pyrido[3,4-b]indole-1,4-dione], the negative-log IC50 (pIC50) was less than 4.30 in test [1]; 8.52 in test [2]; less than 4.30 in test [3]; less than 4.30 in test [5]; less than 4.30 in test [6]; less than 4.30 in [8]. The half-inhibitory concentration (IC50) is more than 50 µM in test [1] (substrate cGMP); more than 50 µM in [3] (substrate cGMP); 0.3 µM in test [4] (setting [10]); 0.27 µM in test [4] (setting [11]); more than 50 µM in [5] (substrate cGMP); more than 50 µM in test [6] (substrate cGMP). The half-maximal inhibitory concentration (IC50) in [7] (setting [12]) is 26.1 µM; in test [7] (setting [13]), 14.7 µM. Besides, the “times improved activity compared to five member congener 5” value in [2] (PDE5 IC50, 29 versus 5) worked out at 1000 times. In test [2], the inhibition at 10 µM was 96%. Besides, in test [4], the “selectivity profile (selectivity index) PDE5 versus PDE11” value is 90.

As for `CCCCN1CC(=O)N2[C@H](c3ccc(Br)cc3)c3[nH]c4ccccc4c3C[C@@H]2C1=O` [Compound 33], the IC50 in [1] (substrate cAMP) was more than 50 µM; in test [1] (substrate cGMP), more than 50 µM; in [2] (read-out: IC50 μM (PDE5), 8 concentrations 1 nM–10 μM), 0.009 µM; in test [2] (read-out: PDE5A inhibition IC50 μM, substrate cAMP (as printed in sub-head)), 0.009 µM; in test [3] (substrate cAMP), more than 50 µM; in test [3] (substrate cGMP), more than 50 µM. Also, the IC50 was 1.2 µM in test [4] (read-out: PDE11A inhibition IC50 μM, substrate cAMP); 0.6 µM in test [4] (read-out: PDE11A inhibition IC50 μM, substrate cGMP); more than 50 µM in [5] (substrate cAMP); more than 50 µM in [5] (substrate cGMP); more than 50 µM in [6] (substrate cAMP); more than 50 µM in test [6] (substrate cGMP). Further, the 50% inhibitory concentration (IC50) in [7] (read-out: PDE10A inhibition IC50 μM, substrate cAMP) was more than 50 µM; in test [7] (read-out: PDE10A inhibition IC50 μM, substrate cGMP), more than 50 µM; in test [8] (read-out: PDE9A inhibition IC50 μM, substrate cGMP) it was more than 50 µM. Moreover, the “% PDE5 inhibition at 10 μM” value in test [2] (10 μM, triplicate) worked out at 87%. Also, in test [4], the “selectivity profile (selectivity index) PDE5 versus PDE11” value came to 67.

With `CC(C)(C)N1CC(=O)N2[C@H](c3ccc(Br)cc3)c3[nH]c4ccccc4c3C[C@@H]2C1=O` [Compound 37, (6R,12aR)-6-(4-Bromophenyl)-2-tert-butyl-2,3,6,7,12,12a-hexahydropyrazino [1′,2′:1,6]pyrido[3,4-b]indole-1,4-dione], in [2], the pIC50 was less than 5.00 and the inhibition at 10 µM was found to be 30%.

`CC(C)(C)N1CC(=O)N2[C@@H](c3ccc(Br)cc3)c3[nH]c4ccccc4c3C[C@@H]2C1=O` [Compound 38, (6S,12aR)-6-(4-Bromophenyl)-2-tert-butyl-2,3,6,7,12,12a-hexahydropyrazino [1′,2′:1,6]pyrido[3,4-b]indole-1,4-dione]: in test [2], the inhibition at 10 µM was determined as 27%.

As for `CC(C)(C)N1CC(=O)N2[C@@H](c3ccc(Br)cc3)c3[nH]c4ccccc4c3C[C@H]2C1=O` [Compound 39, (6S,12aS)-6-(4-Bromophenyl)-2-tert-butyl-2,3,6,7,12,12a-hexahydropyrazino[1′,2′:1,6]pyrido[3,4-b]indole-1,4-dione], the inhibition at 10 µM in test [2] came to 12%.

On to `CC(C)(C)N1CC(=O)N2[C@H](c3ccc(Br)cc3)c3[nH]c4ccccc4c3C[C@H]2C1=O` [Compound 40, (6R,12aS)-6-(4-Bromophenyl)-2-tert-butyl-2,3,6,7,12,12a-hexahydropyrazino[1′,2′:1,6]pyrido[3,4-b]indole-1,4-dione], for which the inhibition at 10 µM in test [2] came to 21%.

Take `CN1CC(=O)N2[C@H](c3ccc4c(c3)OCO4)c3[nH]c4ccccc4c3C[C@@H]2C1=O` [Compound I, tadalafil, reference compound]: the pIC50 in test [1], in test [3], in [5], in test [6] and in test [8] was less than 4.30 in each case. Further, the IC50 in [1] (substrate cGMP), in test [3] (substrate cGMP), in test [5] (substrate cGMP), in [6] (substrate cGMP), in [7] (setting [12]) and in [7] (setting [13]) was more than 50 µM each time. In addition, the “% PDE5 inhibition at 10 μM” value in test [9] is given as 100%.

Values taken from PMC4994520 (European journal of medicinal chemistry, 2012).
